Results reported in PMC11167047 (Cell Death Discovery, 2024).

What was measured:
CDK1/cyclin B1 = target: T1, CDK1/cyclin B1 (Homo sapiens, UniProt P06493); experiment: luminescence-based kinase activity assay; type: biochemical; settings: result in words
T1 construct: purchased BPS Bioscience #79597
Procedure: (§1) The activity of specific CDKs and their cyclins was assessed using CDK Kits from BPS Bioscience (CDK1/cyclin B1 #79597; CDK2/cyclin A2 #79599; CDK9/cyclin T #79628). The assay was conducted following the manufacturer’s guidelines. In summary, the CDK/cyclin complexes, as purified recombinant enzymes, were allowed to react with CDK substrate peptide, ATP, and kinase buffer in the presence or absence of meriolins. The reaction was initiated by adding diluted CDK/cyclin enzyme to the wells and incubating for 45 min at 30 °C. After the incubation, the Kinase-Glo-Max® reagent was added as a detection reagent, and the resulting luciferase reaction produced luminescence, which was inversely correlated with the kinase activity.
(§2) The luminescent CDK/cyclin assay is a method that quantifies the amount of ATP remaining in the solution after a kinase reaction. Luminescence was measured using the Synergy Mix microplate reader as an endpoint measurement. Data analyses were performed according to the manufacturer’s instructions, and statistical analysis was carried out using one-way ANOVA, with corrections made by Bonferroni’s multiple comparison test. The significance level was indicated as ****p ≤ 0.0001.

CDK2/cyclin A2 = target: T2, CDK2/cyclin A2 (Homo sapiens, UniProt P24941); experiment: luminescence-based kinase activity assay; type: biochemical; settings: result in words
T2 construct: purchased BPS Bioscience #79599
Procedure: as §1, §2

CDK9/cyclin T = target: T3, CDK9/cyclin T (Homo sapiens, UniProt P50750); experiment: luminescence-based kinase activity assay; type: biochemical; settings: result in words
T3 construct: purchased BPS Bioscience #79628
Procedure: as §1, §2

[1] = tested on: CDK9 and cyclin T1 protein levels; experiment: immunoblotting of CDK9 and cyclin T1 in Ramos cells; type: cell-based, human; settings: 0.1 and 1 µM, 4-24 h
Procedure: Cells were seeded at a density of 2 × 10^6 cells, treated as specified and harvested by centrifugation at 3000 rpm for 5 min, followed by freezing in liquid nitrogen. The cell pellets were thawed on ice and quick-frozen and defrozen in liquid nitrogen for three times, then lysed on ice in lysis buffer (20 mM Tris-HCl, 150 mM NaCl, 1% v/v Triton X-100, 0.5 mM EDTA, 10 mM NaF, 2.5 mM Na4P2O7, protease inhibitor (Sigma, #P2714)) for 30 min, accompanied by vortexing. Subsequently, centrifugation 13,300 rpm for 15 min purified cell lysates from cell debris. The supernatant was transferred to a new tube and the protein concentration was determined by Bradford assay. The samples were diluted with sample buffer. SDS-Page and Western Blot were conducted in accordance with standard workflows. […] The antibody baths were stored at 4 °C and re-used.
The density of the individual protein band was determined using Image Studio^TM Lite Version 5.2. The density of each protein was divided by the average of all bands of this protein. The ratios of the protein of interest were normalized to the ratio of the respective loading control. To determine the fold change, each normalized ratio was divided by the normalized band of the control line (untreated cells). Fold change is 1 for the control line, n ≥ 2. The results are shown as mean ± standard deviation and were visualized with GraphPad Prism 7.

Ramos cells = experiment: BrdU cell proliferation assay; type: cell-based, human; settings: 24 h, non-lethal doses
Procedure: The Bromodeoxyuridine (BrdU) Cell Proliferation kit from Millipore (#QIA58-1000TEST) was used to measure proliferation of cells. The manufacturer protocol has been optimized as described in the following. 1 × 10^4 cells per well were seeded in a 96-well plate. The cells were pre-incubated with the compounds of interest for 1 h. Following this, the BrdU solution was added and the cells were incubated for a total of 24 h. BrdU is an analog of the nucleoside thymidine and is incorporated into the DNA of dividing cells during replication. Culture medium was removed and cells were fixed and denatured with Fixative/Denaturing solution for 30 min at room temperature. Since suspension cells were used, they had to be centrifuged at 1200 rpm for 5 min after each following step. After, the anti-BrdU-antibody was incubated for 1 h at RT. Cells were washed three times with washing buffer. The secondary antibody, which is coupled to HRP (horseradish peroxidase) was incubated for 30 min at RT. Again, cells were washed three times with washing buffer.
Then, the substrate solution was added, that contained TMB (3,3’,5,5’-Tetramethylbenzidine), which is oxidized by HRP. Oxidation of TMB causes a color change from colorless to blue. The intensity of color change is correlated with the number of bound peroxidases, which depends on the quantity of primary antibodies and therefore on the content of the incorporated BrdU. If the cells are not proliferating, no BrdU is incorporated, resulting in a weak signal.
After 15 min incubation time the stopping reagent was added, causing a pH change and resulting in a color change from blue to yellow. The colored reaction product was quantified at 450 nm using a spectrophotometer. For all measurements, three technical replicates were made. The control was set to 100% proliferation, and the treated cells were normalized to the control. The results were visualized using GraphPad Prism 7.

HeLa cells = experiment: EdU incorporation by microscopy; type: cell-based, human; settings: 24 h, non-lethal dose (IC25)
Procedure: The EdU-assay, utilizing the EdU-click 488 kit from Baseclick GmbH (#BCK-TCell-FC488) was performed according to manufacturer’s instructions. The EdU-assay is employed to measure the incorporation of 5-ethynyl-2’-deoxyuridine (EdU) into DNA, providing a means to assess cell proliferation. Cell proliferation involves the synthesis of new DNA during the S phase of the cell cycle. When cells are exposed to 5-EdU, they incorporate the compound into their DNA at thymidine bases during S phase. A fluorophore-labeled azide reacts with the incorporated EdU, enabling its detection through microscopy (sigmaaldrich.com). The experimental process involves seeding cells and allowing them to grow to the desired density, applying the indicated treatments, and subsequently adding EdU to the media. After fixation and permeabilization, the EdU detection, along with DAPI-stained nuclei, is carried out using fluorescence microscopy.

SUPB15 = settings: read-out: IC50 (SUPB15); cytotoxicity, 24 h
Procedure: (§3) The resazurin reduction assay, which is also known as AlamarBlue® assay, was used for the determination of cell viability in all cytotoxicity determinations shown in the present work, as previously described [22]. Briefly, cells were seeded at a specific density depending on the incubation time (24 h: 1 × 10^6 cells/ml) in a 96-well plate and incubated with increasing compound concentrations (0.01–30 µM). After the specified treatment time, resazurin (Sigma, #R7017) was added to a final concentration of 40 µM. […] The viability of control cells was set to 100% and all other values were normalized to the control condition, the dose-response curves were then fitted with Prism v7.01 (GraphPad software, La Jolla, CA, USA). The reduction of resazurin to resorufin is proportional to aerobic respiration; therefore, it is used as a measure for the cell viability and cytotoxicity of a tested compound.

[2] = tested on: CLL16 chronic lymphocytic leukemia cells; settings: read-out: IC50 (CLL16); primary patient cells, 24 h
Excerpt: (§4) For chronic lymphocytic leukemia, mononuclear cells were isolated from peripheral blood using a Ficoll gradient (GE Healthcare). Primary cells from other lymphoma entities were isolated as previously described [80]. All cells were cryopreserved after isolation and thawed as previously described [81].
as §3

[3] = tested on: DLBCL177 diffuse large B cell lymphoma cells; settings: read-out: IC50 (DLBCL177); primary patient cells, 24 h
Excerpt: as §4
The resazurin reduction assay, which is also known as AlamarBlue® assay, was used for the determination of cell viability in all cytotoxicity determinations shown in the present work, as previously described [22]. Briefly, cells were seeded at a specific density depending on the incubation time (24 h: 1 × 10^6 cells/ml) in a 96-well plate and incubated with increasing compound concentrations (0.01–30 µM). After the specified treatment time, resazurin (Sigma, #R7017) was added to a final concentration of 40 µM. […] The viability of control cells was set to 100% and all other values were normalized to the control condition, the dose-response curves were then fitted with Prism v7.01 (GraphPad software, La Jolla, CA, USA).

T1 sequence (P06493 whole entry): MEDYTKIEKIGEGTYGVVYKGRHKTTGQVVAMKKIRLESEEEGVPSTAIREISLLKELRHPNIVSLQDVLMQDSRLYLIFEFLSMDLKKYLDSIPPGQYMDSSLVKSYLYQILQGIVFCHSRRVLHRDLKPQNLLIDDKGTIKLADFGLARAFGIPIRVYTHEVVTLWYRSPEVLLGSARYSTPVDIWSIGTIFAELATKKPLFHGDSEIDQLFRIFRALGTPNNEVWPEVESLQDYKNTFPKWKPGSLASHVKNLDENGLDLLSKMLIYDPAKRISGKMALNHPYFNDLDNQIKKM
T1 sequence (P14635 whole entry partner): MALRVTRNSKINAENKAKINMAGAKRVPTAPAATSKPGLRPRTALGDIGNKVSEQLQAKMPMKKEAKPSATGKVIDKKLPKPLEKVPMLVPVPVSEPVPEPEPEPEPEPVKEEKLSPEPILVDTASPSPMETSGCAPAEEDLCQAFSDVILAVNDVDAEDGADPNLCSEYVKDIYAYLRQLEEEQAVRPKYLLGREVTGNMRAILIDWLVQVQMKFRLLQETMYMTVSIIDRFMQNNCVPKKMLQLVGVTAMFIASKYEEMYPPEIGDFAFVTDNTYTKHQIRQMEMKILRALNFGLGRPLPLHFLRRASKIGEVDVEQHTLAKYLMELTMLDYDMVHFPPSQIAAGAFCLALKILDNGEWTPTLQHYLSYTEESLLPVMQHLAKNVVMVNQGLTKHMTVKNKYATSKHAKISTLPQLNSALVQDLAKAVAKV
T3 sequence (P50750 whole entry): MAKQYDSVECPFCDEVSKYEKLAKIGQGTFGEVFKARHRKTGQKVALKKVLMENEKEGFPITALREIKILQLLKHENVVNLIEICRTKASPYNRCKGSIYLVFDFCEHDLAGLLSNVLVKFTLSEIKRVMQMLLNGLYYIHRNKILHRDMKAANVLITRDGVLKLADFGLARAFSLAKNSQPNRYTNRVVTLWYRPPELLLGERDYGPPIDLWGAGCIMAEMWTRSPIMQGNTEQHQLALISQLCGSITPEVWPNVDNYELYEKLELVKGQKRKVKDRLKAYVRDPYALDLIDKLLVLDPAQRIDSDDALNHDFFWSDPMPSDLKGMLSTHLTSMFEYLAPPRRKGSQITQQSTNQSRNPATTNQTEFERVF
T3 sequence (O60563 whole entry partner): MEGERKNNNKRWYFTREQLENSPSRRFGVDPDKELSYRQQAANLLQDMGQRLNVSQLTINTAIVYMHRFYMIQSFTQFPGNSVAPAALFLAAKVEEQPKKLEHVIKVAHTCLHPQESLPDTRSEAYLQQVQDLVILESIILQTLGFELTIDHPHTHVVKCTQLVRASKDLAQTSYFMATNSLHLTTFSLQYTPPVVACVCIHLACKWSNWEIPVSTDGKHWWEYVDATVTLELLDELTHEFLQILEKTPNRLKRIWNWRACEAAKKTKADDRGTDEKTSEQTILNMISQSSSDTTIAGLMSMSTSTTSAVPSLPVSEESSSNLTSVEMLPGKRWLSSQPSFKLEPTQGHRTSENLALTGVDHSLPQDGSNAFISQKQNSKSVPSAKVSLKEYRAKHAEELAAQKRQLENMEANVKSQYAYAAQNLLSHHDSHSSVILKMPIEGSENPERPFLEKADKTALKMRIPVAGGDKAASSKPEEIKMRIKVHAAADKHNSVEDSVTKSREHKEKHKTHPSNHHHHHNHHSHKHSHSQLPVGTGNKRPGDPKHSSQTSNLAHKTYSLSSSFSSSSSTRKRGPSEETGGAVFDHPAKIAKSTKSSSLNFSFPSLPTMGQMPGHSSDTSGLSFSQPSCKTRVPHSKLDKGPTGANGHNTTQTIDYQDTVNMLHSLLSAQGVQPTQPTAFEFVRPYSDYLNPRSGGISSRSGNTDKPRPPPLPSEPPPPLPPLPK

COc1ccnc2[nH]cc(-c3cc(N)nc(N)c3)c12 [meriolin 16]
inhibition of CDK1/cyclin B1 (CDK1/cyclin B1): inhibited | inhibition of CDK2/cyclin A2 (CDK2/cyclin A2): inhibited | inhibition of CDK9/cyclin T (CDK9/cyclin T): inhibited | CDK9 and cyclin T1 protein levels [1]: decrease | proliferation (BrdU incorporation) (Ramos cells): substantial decrease in proliferation | EdU incorporation (proliferation) reduced to (HeLa cells): 10% | IC50 (SUPB15): 20 nM | IC50 [2]: 60 nM | IC50 [3]: 80 nM

c1ccc(CNc2cc(-c3c[nH]c4ncccc34)ccn2)cc1 [meriolin 36]
inhibition of CDK1/cyclin B1 (CDK1/cyclin B1): inhibited | inhibition of CDK2/cyclin A2 (CDK2/cyclin A2): inhibited | inhibition of CDK9/cyclin T (CDK9/cyclin T): inhibited | CDK9 and cyclin T1 protein levels [1]: relatively stable | proliferation (BrdU incorporation) (Ramos cells): substantial decrease in proliferation | EdU incorporation (proliferation) reduced to (HeLa cells): 10% | IC50 (SUPB15): 1650 nM | IC50 [2]: 200 nM | IC50 [3]: 50 nM
